From PubChem BioAssay AID2060494 (Molecular Pharmacology Branch, DTP, NCI, 2025)

Tested on: 435261-313-R-J1-PDC complex spheroid viability
Test: Anticancer human tumor 435261-313-R-J1-PDC patient-derived colon adenocarcinoma cell line growth inhibition [GQUAD]
Conditions: for IC50: curve of first compound; for viability, T/C: stronger effect = lower value
Procedure, shortened: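 Viability of tumor cells grown as complex spheroids with endothelial and stromal cells, exposed to drug combinations. Top concentration at or near clinical Cmax (else 10 microM), diluted in half-log increments.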

[1] = second compound 0.0316 µM, first compound 0.0316 µM
[2] = second compound 0.0316 µM, first compound 0.1 µM
[3] = second compound 0.0316 µM, first compound 0.316 µM
[4] = second compound 0.0316 µM, first compound 1 µM
[5] = second compound 0.0316 µM, first compound 3.16 µM
[6] = second compound 0.0316 µM, first compound 10 µM
[7] = second compound 0.1 µM, first compound 0.0316 µM
[8] = second compound 0.1 µM, first compound 0.1 µM
[9] = second compound 0.1 µM, first compound 0.316 µM
[10] = second compound 0.1 µM, first compound 1 µM
[11] = second compound 0.1 µM, first compound 3.16 µM
[12] = second compound 0.1 µM, first compound 10 µM
[13] = second compound 0.316 µM, first compound 0.0316 µM
[14] = second compound 0.316 µM, first compound 0.1 µM
[15] = second compound 0.316 µM, first compound 0.316 µM
[16] = second compound 0.316 µM, first compound 1 µM
[17] = second compound 0.316 µM, first compound 3.16 µM
[18] = second compound 0.316 µM, first compound 10 µM
[19] = second compound 1 µM, first compound 0.0316 µM
[20] = second compound 1 µM, first compound 0.1 µM
[21] = second compound 1 µM, first compound 0.316 µM
[22] = second compound 1 µM, first compound 1 µM
[23] = second compound 1 µM, first compound 3.16 µM
[24] = second compound 1 µM, first compound 10 µM
[25] = second compound 3.16 µM, first compound 0.0316 µM
[26] = second compound 3.16 µM, first compound 0.1 µM
[27] = second compound 3.16 µM, first compound 0.316 µM
[28] = second compound 3.16 µM, first compound 1 µM
[29] = second compound 3.16 µM, first compound 3.16 µM
[30] = second compound 3.16 µM, first compound 10 µM
[31] = second compound 10 µM, first compound 0.0316 µM
[32] = second compound 10 µM, first compound 0.1 µM
[33] = second compound 10 µM, first compound 0.316 µM
[34] = second compound 10 µM, first compound 1 µM
[35] = second compound 10 µM, first compound 3.16 µM
[36] = second compound 10 µM, first compound 10 µM
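Note: spheroids exposed to the agents for seven days before readout.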
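Throughout, for viability, T/C: percent of vehicle control viability with DMSO wells as 100%.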

C#Cc1c(F)ccc2cc(O)cc(-c3ncc4c(N5CC6CCC(C5)N6)nc(OCC56CCCN5CC(F)C6)nc4c3F)c12 (stereo unspecified) + CN(C)c1ccc(Nc2c3ccc(NC(=O)CCN4CCCC4)cc3nc3cc(NC(=O)CCN4CCCC4)ccc23)cc1
IC50 (second compound 0.0316 µM): > 10 µM
IC50 (second compound 0.1 µM): > 10 µM
IC50 (second compound 0.316 µM): > 10 µM
IC50 (second compound 1 µM): > 10 µM
IC50 (second compound 3.16 µM): 3.58 µM
IC50 (second compound 10 µM): 0.199 µM
viability, T/C [1]: 77%
viability, T/C [2]: 118%
viability, T/C [3]: 114%
viability, T/C [4]: 58.1%
viability, T/C [5]: 64.9%
viability, T/C [6]: 48.8%
viability, T/C [7]: 123%
viability, T/C [8]: 110%
viability, T/C [9]: 94.6%
viability, T/C [10]: 99.6%
viability, T/C [11]: 66.1%
viability, T/C [12]: 60.5%
viability, T/C [13]: 89.3%
viability, T/C [14]: 130%
viability, T/C [15]: 82%
viability, T/C [16]: 78%
viability, T/C [17]: 50.7%
viability, T/C [18]: 64%
viability, T/C [19]: 82.5%
viability, T/C [20]: 87.9%
viability, T/C [21]: 103%
viability, T/C [22]: 64.5%
viability, T/C [23]: 62.4%
viability, T/C [24]: 54.7%
viability, T/C [25]: 67.8%
viability, T/C [26]: 65.8%
viability, T/C [27]: 42.2%
viability, T/C [28]: 42.5%
viability, T/C [29]: 56.7%
viability, T/C [30]: 9.31%
viability, T/C [31]: 44.2%
viability, T/C [32]: 73.5%
viability, T/C [33]: 42.1%
viability, T/C [34]: 23.6%
viability, T/C [35]: 19.8%
viability, T/C [36]: 0.2%

C=CCn1c(=O)c2cnc(Nc3ccc(N4CCN(C)CC4)cc3)nc2n1-c1cccc(C(C)(C)O)n1 + CN(C)c1ccc(Nc2c3ccc(NC(=O)CCN4CCCC4)cc3nc3cc(NC(=O)CCN4CCCC4)ccc23)cc1
IC50 (second compound 0.0316 µM): > 10 µM
IC50 (second compound 0.1 µM): > 10 µM
IC50 (second compound 0.316 µM): 7.58 µM
IC50 (second compound 1 µM): > 10 µM
IC50 (second compound 3.16 µM): > 10 µM
IC50 (second compound 10 µM): 0.353 µM
viability, T/C [1]: 128%
viability, T/C [2]: 145%
viability, T/C [3]: 84.1%
viability, T/C [4]: 103%
viability, T/C [5]: 81.8%
viability, T/C [6]: 65.2%
viability, T/C [7]: 96.4%
viability, T/C [8]: 89.1%
viability, T/C [9]: 87.9%
viability, T/C [10]: 69.7%
viability, T/C [11]: 91.7%
viability, T/C [12]: 73%
viability, T/C [13]: 92.7%
viability, T/C [14]: 81.5%
viability, T/C [15]: 86.6%
viability, T/C [16]: 78.1%
viability, T/C [17]: 64%
viability, T/C [18]: 45.5%
viability, T/C [19]: 80.8%
viability, T/C [20]: 98.7%
viability, T/C [21]: 66.6%
viability, T/C [22]: 90.4%
viability, T/C [23]: 75.8%
viability, T/C [24]: 54.6%
viability, T/C [25]: 50.9%
viability, T/C [26]: 48.2%
viability, T/C [27]: 63.4%
viability, T/C [28]: 70.1%
viability, T/C [29]: 57.8%
viability, T/C [30]: 34%
viability, T/C [31]: 32.7%
viability, T/C [32]: 90.5%
viability, T/C [33]: 44.8%
viability, T/C [34]: 31.8%
viability, T/C [35]: 23.9%
viability, T/C [36]: 9.35%

CC(=O)O[C@H]1C(=O)[C@@]2(C)[C@H]([C@H](OC(=O)c3ccccc3)[C@]3(O)C[C@H](OC(=O)[C@H](O)[C@@H](NC(=O)c4ccccc4)c4ccccc4)C(C)=C1C3(C)C)[C@]1(OC(C)=O)CO[C@@H]1C[C@@H]2O + CN(C)c1ccc(Nc2c3ccc(NC(=O)CCN4CCCC4)cc3nc3cc(NC(=O)CCN4CCCC4)ccc23)cc1
IC50 (second compound 0.0316 µM): > 10 µM
IC50 (second compound 0.1 µM): > 10 µM
IC50 (second compound 0.316 µM): > 10 µM
IC50 (second compound 1 µM): > 10 µM
IC50 (second compound 3.16 µM): > 10 µM
IC50 (second compound 10 µM): < 0.0316 µM
viability, T/C [1]: 94.3%
viability, T/C [2]: 78.6%
viability, T/C [3]: 84.6%
viability, T/C [4]: 69.9%
viability, T/C [5]: 69.1%
viability, T/C [6]: 76.5%
viability, T/C [7]: 71.9%
viability, T/C [8]: 72.5%
viability, T/C [9]: 77.4%
viability, T/C [10]: 62%
viability, T/C [11]: 75.3%
viability, T/C [12]: 70.5%
viability, T/C [13]: 72.5%
viability, T/C [14]: 82.5%
viability, T/C [15]: 73.7%
viability, T/C [16]: 69.2%
viability, T/C [17]: 68.4%
viability, T/C [18]: 61.5%
viability, T/C [19]: 80.4%
viability, T/C [20]: 61.5%
viability, T/C [21]: 59.4%
viability, T/C [22]: 63.5%
viability, T/C [23]: 73.3%
viability, T/C [24]: 63.6%
viability, T/C [25]: 52.3%
viability, T/C [26]: 52.6%
viability, T/C [27]: 48.6%
viability, T/C [28]: 60.9%
viability, T/C [29]: 52.8%
viability, T/C [30]: 55.1%
viability, T/C [31]: 31.6%
viability, T/C [32]: 19.9%
viability, T/C [33]: 23.6%
viability, T/C [34]: 21.2%
viability, T/C [35]: 27.5%
viability, T/C [36]: 16.8%
